According to ChEMBL document CHEMBL1151392, “Structure-activity relations of polyfunctional diterpenes of the daphnane type. I. Revised structure for resiniferatoxin and structure-activity relations of resiniferonol and some of its esters” (J Nat Prod, 1982):

Key:
[1] = species: Mus musculus; experiment: Toxicity in NMRI mouse assessed as irritant dose 50 causing ear redness after 24 hours assessed per ear; format: organism-based; settings: in vivo
[2] = species: Mus musculus; experiment: Toxicity in NMRI mouse assessed as irritant dose 50 causing ear redness after 5 hours assessed per ear; format: organism-based; settings: in vivo, topical_or_ocular

| Compound | Activity [1] | Activity [2] |
| --- | --- | --- |
| C=C(C)[C@]12C[C@@H](C)[C@@]34O[C@](C)(O[C@@H]1[C@@H]3C=C(CO)C[C@]1(O)C(=O)C(C)=C[C@@H]41)O2 | 12.9 nmol | > 100 nmol |
| C=C(C)[C@]12C[C@@H](C)[C@@]34O[C@](CCCCCCCCCCCCC)(O[C@@H]1[C@@H]3C=C(COC(=O)Cc1cc(OC)cc(OC)c1)C[C@]1(O)C(=O)C(C)=C[C@@H]41)O2 | > 5 nmol | > 5 nmol |
| C=C(C)[C@]12C[C@@H](C)[C@@]34O[C@](Cc5ccccc5)(O[C@@H]1[C@@H]3C=C(CO)C[C@]1(O)C(=O)C(C)=C[C@@H]41)O2 | > 20 nmol | 1 nmol |
| COC(=O)Cc1ccc(O)c(OC)c1 | > 100 nmol | 25 nmol |
| C=C(C)[C@]12C[C@@H](C)[C@@]34O[C@](Cc5ccccc5)(O[C@@H]1[C@@H]3C=C(COC(C)=O)C[C@]1(O)C(=O)C(C)=C[C@@H]41)O2 | > 10 nmol | > 10 nmol |
| C=C(C)[C@]12C[C@@H](C)[C@@]34O[C@](Cc5ccccc5)(O[C@@H]1[C@@H]3C=C(COC(=O)Cc1ccccc1)C[C@]1(O)C(=O)C(C)=C[C@@H]41)O2 | > 10 nmol | 1.7 ×10⁻³ nmol |
| C=C(C)[C@]12C[C@@H](C)[C@@]34O[C@](CCCCCCCCCCCCC)(O[C@@H]1[C@@H]3C=C(CO)C[C@]1(O)C(=O)C(C)=C[C@@H]41)O2 | 0.8 nmol | > 30 nmol |
| C=C(C)[C@]1(O)C[C@@H](C)[C@@]2(O)[C@@H](C=C(COC(=O)Cc3ccccc3)C[C@]3(O)C(=O)C(C)=C[C@@H]23)[C@H]1O | > 100 nmol | > 100 nmol |
| C=C(C)[C@]12C[C@@H](C)[C@@]34O[C@](Cc5ccccc5)(O[C@@H]1[C@@H]3C=C(COC(=O)c1ccccc1)C[C@]1(O)C(=O)C(C)=C[C@@H]41)O2 | > 10 nmol | 1.2 ×10⁻² nmol |
| C=C(C)[C@]12C[C@@H](C)[C@@]34O[C@](Cc5ccccc5)(O[C@@H]1[C@@H]3C=C(COC(=O)Cc1cc(OC)cc(OC)c1)C[C@]1(O)C(=O)C(C)=C[C@@H]41)O2 | > 20 nmol | 6.2 ×10⁻⁴ nmol |
| C=C(C)[C@]12C[C@@H](C)[C@@]34O[C@](Cc5ccccc5)(O[C@@H]1[C@@H]3C=C(COC(=O)CCCCC)C[C@]1(O)C(=O)C(C)=C[C@@H]41)O2 | > 10 nmol | 8.9 ×10⁻² nmol |
| C=C(C)[C@]12C[C@@H](C)[C@@]34O[C@](CCCCCCCCCCCCC)(O[C@@H]1[C@@H]3C=C(COC(=O)CCCCCCCCCCCCC)C[C@]1(O)C(=O)C(C)=C[C@@H]41)O2 | > 60 nmol | > 60 nmol |
| C=C(C)[C@]12C[C@@H](C)[C@@]34O[C@](C)(O[C@@H]1[C@@H]3C=C(COC(=O)Cc1cc(OC)cc(OC)c1)C[C@]1(O)C(=O)C(C)=C[C@@H]41)O2 | > 5 nmol | 2.6 ×10⁻² nmol |
| C=C(C)[C@]12C[C@@H](C)[C@@]34O[C@](Cc5ccccc5)(O[C@@H]1[C@@H]3C=C(COC(=O)Cc1ccc(O)c(OC)c1)C[C@]1(O)C(=O)C(C)=C[C@@H]41)O2 [RESINIFERATOXIN] | > 20 nmol | 1.6 ×10⁻⁵ nmol |
| C=C(C)[C@]1(O)C[C@@H](C)[C@@]2(O)[C@@H](C=C(CO)C[C@]3(O)C(=O)C(C)=C[C@@H]23)[C@H]1O [RESINIFERONOL] | > 100 nmol | > 100 nmol |
| C=C(C)[C@]12C[C@@H](C)[C@@]34O[C@](Cc5ccccc5)(O[C@@H]1[C@@H]3C=C(COC(=O)Cc1ccc(OC)c(OC)c1)C[C@]1(O)C(=O)C(C)=C[C@@H]41)O2 [RESINIFERATOXIN METHYL ETHER] | > 20 nmol | 4.7 ×10⁻⁴ nmol |
